Entries after “also recorded” stand apart in the source; their conditions may differ.
Assays:
[1] = test system: Colo320 DM (ecDNA+) and Colo320 HSR (ecDNA−) cells; assay: MTS cell proliferation assay, 7 days, Colo320 ecDNA+ vs ecDNA−; format: cell-based
Description: (§1) Sensitivity of an ecDNA+ (Colo320 ecDNA+) and an ecDNA− (Colo320 ecDNA−) cell line models to WEE1 inhibition was determined by treating each with increasing concentrations of either adavosertib or PD0166285 over a 7 day period. Cell proliferation was determined using a MTS assay (FIG. 27, top panels), while viability was determined using CellTiter-glo assay (FIG. 27 bottom panels).
(§2) Cell proliferation was determined using a MTS assay (FIG. 36, top panels), while viability was determined using CellTiter-glo assay (FIG. 36, bottom panels).

[2] = test system: HeLa cells; assay: HeLa cell confluence by high-content microscopy over three weeks, with or without 100 nM methotrexate; format: cell-based; conditions: for development of methotrexate resistance: in combination with 100 nM methotrexate; for development of methotrexate resistance / cell growth (cell confluence), agent alone: three weeks; for cell growth (cell confluence), agent alone: 10 nM GDC-0575, 100 nM methotrexate, 300 nM-10 μM AZD6738
Description: Cell confluence was measured via high-content microscopy over the time course.
HeLa cells were treated with a WEE1 inhibitor, 0.01-0.3 μM adavosertib alone, with 1 nM-100 nM PD0166285, with 100 nM methotrexate alone, or with a combination of 0.01-0.3 μM adavosertib and 100 nM methotrexate or a combination of 1 nM-100 nM PD0166285 and 100 nM methotrexate over the course of three weeks. Cell confluence was measured via high-content microscopy over the time course.
HeLa cells were treated with a PARG inhibitor, 3-100 μM PD00017273 with (FIG. 35 top panel) or without (FIG. 35 bottom panel) 100 nM methotrexate over the course of 3 weeks. Cell confluence was measured via high-content microscopy over the time course.
Cell confluence was measured via high-content microscopy over the time course. […] However.

[3] = test system: Colo320 ecDNA+ and Colo320 ecDNA− cells; assay: CellTiter-glo viability assay, 7 days, Colo320 ecDNA+ vs ecDNA−; format: cell-based
Description: as §1, §2

[4] = test system: SNU16 cells; assay: Long-term cell growth / resistance development in SNU16 cells; format: cell-based, human; conditions: for cell growth / development of primary resistance: FIG. 25, 12 weeks, 1 uM infigratinib, 1 uM erlotinib, 10 nM gemcitabine; for cell growth / resistance formation: 9 weeks
Description: Each treatment arm was terminated once the cell number reached 5×10^6.
SNU16 cells were subdivided into five groups and each group of 1×10^6 cells was subjected to treatment with 1 μM infigratinib, 1 μM erlotinib, 1 μM infigratinib and 1 μM erlotinib, 0.1 μM adavosertib and cell growth was recorded over 9 weeks.
SNU16 cells were subdivided into five groups and each group of 1×10^6 cells was subjected to treatment with infigratinib, erlotinib, PD00017273, infigratinib and erlotinib, or infigratinib and PD00017273 and cell growth was recorded over 9 weeks.
SNU16 (CRL-5974) cell line was purchased from ATCC. SNU16 cells were grown in RPMI 1640 medium (Fisher Scientific) with 10% FBS and 100 U/ml penicillin/streptomycin (Fisher Scientific). For the resistance experiments, SNU16 cells were plated at 2 million per T75 flask and were treated with either 1 μM infigratinib (Selleck Chemicals), 1 μM erlotinib (Selleck Chemicals), 10 nM gemcitabine (Sigma Aldrich), or a combination. The media was changed and fresh drug was added at least once per week. The cells were counted over the span of several weeks to measure cell growth.

[5] = test system: infigratinib-resistant SNU16 cells; assay: Secondary resistance, cell growth of infigratinib-resistant SNU16 cells over 5 weeks; format: cell-based, human; conditions: FIG. 26, 1 uM infigratinib, 1 uM erlotinib, 10 nM gemcitabine
Description: The infigratinib-resistant SNU16 cells (generated as shown in FIG. 25) were subdivided into six groups and each group of 1×10^6 cells was subjected to treatment with 1 uM infigratinib, 1 uM erlotinib, 10 nM gemcitabine, or 1 uM erlotinib+10 nM gemcitabine and the cell growth was recorded over 5 weeks. Each treatment arm was terminated once the cell number reached 5×10^6.

[6] = test system: ecDNA+ (Colo320 DM) and ecDNA− (Colo320 HSR) cells; assay: DNA fiber analysis, replication fork speed; format: cell-based; conditions: 16 hr treatment
Description: FIGS. 42A-42B show intrinsic replication fork dysfunction in ecDNA(+) cancer cells is further compromised by RNR inhibition relative to […]. […] The two cell models were then pulse-labeled with the thymidine analogues chlorodeoxyuridine (CldU) and iododeoxyuridine (IdU) for 30 min each (FIG. 42A). Cells were lysed, DNA fibers spread out and immunostained using specific antibodies against CldU and IdU. […] A difference of -0.13 kb/min in replication fork speed between ecDNA+ and […] treated with RNRi was observed. Statistical significance was calculated using nonparametric Kolmogorov-Smirnov test. FIGS. 43A-43B show intrinsic replication fork dysfunction in ecDNA+ cancer cells is further compromised by CHK1 inhibition relative to […]. […] The two cell models were then pulse-labeled with the thymidine analogues chlorodeoxyuridine (CldU) and iododeoxyuridine (IdU) for 30 min each (FIG. 43A). Cells were lysed, DNA fibers spread out and immunostained using specific antibodies against CldU and IdU.

[7] = test system: Colo320 DM ecDNA+ and Colo320 HSR ecDNA− cells; assay: Sensitivity of Colo320 DM and Colo320 HSR to CHK1 inhibitors, seven days (FIG. 13); format: cell-based; conditions: CHK2 or ATM inhibition
Description: The sensitivity of an ecDNA+ cell line (Colo320 DM) compared with an ecDNA− cell line (Colo320 HSR) to four structurally distinct CHK1 inhibitors was determined.

[8] = test system: Colo320 ecDNA+ (COLO320 DM) and Colo320 ecDNA− (COLO320 HSR) cells; assay: Sensitivity of Colo320 ecDNA+ and ecDNA− cells to RNR inhibitors (FIG. 12); format: cell-based; conditions: for induction of replication stress marker, phosphorylation at serine positions 317 and 345 of CHK1: Colo320 DM and HSR cells
[9] = test system: CT26WT E3 G12C KRAS mutant tumor cells; assay: Treatment of CT26WT E3 G12C KRAS mutant tumors in mice, tumor growth (Examples 3 and 4); format: in vivo; conditions: adagrasib 50 mg/kg orally once per day
Excerpt: (§3) Mice were implanted with CT26WT E3 G12C KRAS mutant tumor cells.
as §3

[10] = test system: parental CT26 WT E3 line; assay: Culture of parental line with adagrasib; format: cell-based
[11] = test system: ecDNA+ cell lines (SNU16, Colo320 DM, H716, and H2170) and ecDNA− cell lines (DLD1, Colo320 HSR, Lovo, and SW48); assay: Two-week soft-agar 3D colony formation assay, gemcitabine (FIG. 5); format: cell-based; conditions: five-point dose range, two weeks, colony counts
Description: A panel of ecDNA+ and ecDNA− cell lines were interrogated in a two-week soft-agar drug sensitivity assay. All lines were treated with a five-point dose range of gemcitabine for two weeks and stained with crystal violet (FIG. 5, top panel) to quantify individual colony counts by ImageJ analysis (plotted in FIG. 5, bottom panel).

[12] = test system: KRAS amplified ecDNA; assay: KRAS ecDNA by FISH in metaphase spreads from ex vivo cultures of treated tumors; design: species or system murine
Description: ecDNA were measured in metaphase spreads prepared from ex vivo cultures established from tumors taken from the mice on day of sacrifice. ecDNA counts were determined using FISH for murine KRAS.
Metaphase spreads were prepared from metaphase arrested and fixed ex vivo cultures established from tumors taken from mice in treatment groups and ecDNA was visualized by FISH for murine KRAS.

[13] = test system: KRASi resistant tumor cells cultured ex vivo; assay: KRASi resistant tumor cells implanted into NOD-SCID mice, tumor growth; format: in vivo; conditions: adagrasib 50 mg/kg orally once per day
Excerpt: KRASi resistant tumor cells cultured ex vivo from Example 5 were implanted into NOD-SCID mice. […] Mice were implanted with the KRAS-resistant tumor cells as above.

[14] = test system: HeLa cells; assay: HeLa colony formation assay, resistance formation to methotrexate (FIG. 32); format: cell-based; conditions: 10000 cells plated with methotrexate for 21 days, IC50, 1/3 IC50, or 1/9 IC50
[15] = test system: panel of ecDNA+ cell lines; assay: Two-week soft-agar 3D colony formation assay, adavosertib (FIG. 31); format: cell-based; conditions: five-point dose range, two weeks
Description: FIG. 31 illustrates sensitivity of ecDNA+ cells to inhibition of WEE1 using adavosertib in a 3-dimensional colony formation assay conducted in soft-agar. A panel of ecDNA+ cell lines were interrogated in a two-week soft agar drug sensitivity assay. All lines were treated with a five-point dose range of adavosertib for two weeks and stained with crystal violet to quantify individual colony counts.

Q: CCN(CC)CCOc1ccc(Nc2ncc3cc(-c4c(Cl)cccc4Cl)c(=O)n(C)c3n2)cc1 [PD0166285] was tested. Which “sensitivity of Colo320 ecDNA+ compared with ecDNA− cells, proliferation changes” value [1] did it give?
A: enhanced sensitivity

Q: And the “development of methotrexate resistance” value [2]?
A: abrogation of methotrexate resistance

Q: And the “sensitivity of Colo320 ecDNA+ compared with ecDNA− cells, viability changes” value [3]?
A: enhanced sensitivity

Q: C#Cc1cccc(Nc2ncnc3cc(OCCOC)c(OCCOC)cc23)c1 [erlotinib] was tested. Which “cell growth / development of primary resistance” value [4] did it give?
A: no effect on cell growth on its own

Q: And the “cell growth / resistance formation” value ([4]; FIG. 30, 1 μM infigratinib, 1 μM erlotinib, 0.1 μM adavosertib)?
A: no effect on cell growth on its own

Q: And the “cell growth / resistance formation” value ([4]; FIG. 34)?
A: little to no effect on cell growth

Q: What about the “cell growth / development of secondary resistance” value [5] of the same molecule?
A: delayed cell growth for the first two weeks, but the cells continued to grow quickly after that; also recorded: initially sensitive to EGFR inhibitor erlotinib but develop secondary resistance within three weeks

Q: For CN(Cc1cnc2nc(N)nc(N)c2n1)c1ccc(C(=O)N[C@@H](CCC(=O)O)C(=O)O)cc1 [methotrexate], which “cell growth (cell confluence), agent alone” value [2] is on record?
A: initially resulted in little to no cell growth, but after two weeks in culture, the cells began to develop resistance and cell growth resumed

Q: For COc1cccc(OCCCN)c1-c1cc(Nc2cnc(C#N)cn2)n[nH]1 [prexasertib], which “difference in replication fork speed between treated ecDNA+ and ecDNA− cells” value [6] is on record?
A: −0.1 kb/min

Q: Which “differential sensitivity between the two lines” value [7] does the source give for COc1cc2nc(-c3cc(F)ccc3O)nc(N[C@@H]3CNC[C@H]3C(C)(C)O)c2cc1OC [CCT241533] here?
A: neither inhibiting CHK2 with CCT241533 nor inhibiting DDR target, ATM, with AZD0156 revealed any differential sensitivity

Q: Which “induction of replication stress marker, phosphorylation at serine positions 317 and 345 of CHK1” value [8] does the source give for NC(=O)NO [hydroxyurea] here?
A: induced the replication stress marker

Q: What about the ecDNA copy number ([8]; ecDNA+ (Colo320 DM) cells, vs vehicle treated) of the same molecule?
A: markedly reduced

Q: Which “differential sensitivity between the two lines” value [7] does the source give for CN(C)CCCOc1ccc(-c2ccc3ncc4c(c3c2)n(C2CCOCC2)c(=O)n4C)cn1 [AZD0156] here?
A: neither inhibiting CHK2 with CCT241533 nor inhibiting DDR target, ATM, with AZD0156 revealed any differential sensitivity

Q: Which “day by which tumors began to exhibit resistance and tumor growth resumed” value ([9]; Example 3) does the source give for C=C(F)C(=O)N1CCN(c2nc(OC[C@@H]3CCCN3C)nc3c2CCN(c2cccc4cccc(Cl)c24)C3)C[C@@H]1CC#N [adagrasib] here?
A: ≤ 14 days

Q: What about the “delay in tumor growth before tumors developed resistance” value ([9]; Example 4) of the same molecule?
A: about 2 weeks

Q: What about the “sensitivity to the drug in culture” value [10] of the same molecule?
A: remained sensitive to the drug

Q: Which results are given for Nc1ccn([C@@H]2O[C@H](CO)[C@@H](O)C2(F)F)c(=O)n1 [gemcitabine]?
A: tumor growth ([9]; Example 3, from average volume 350 mm^3, gemcitabine 10 mg/kg ip every other day or 120 mg/kg ip once per week): only KRASi (adagrasib) resulted in a significant delay in tumor growth; tumor growth ([9]; Example 4, gemcitabine 10 or 20 mg/kg ip every other day): substantial tumor growth; fold enhanced sensitivity of ecDNA+ cell lines compared with ecDNA− cell lines [11]: 5-10 fold; difference in replication fork speed between treated ecDNA+ and ecDNA− cells [6]: −0.13 kb/min; KRAS ecDNA level ([12]; Example 3, tumors at day of sacrifice (D21 or D16)): no KRAS amplified ecDNA was seen; ecDNA copy number per metaphase spread where ecDNA present ([12]; Example 4): 1-3 per metaphase spread; metaphase spreads with little to no ecDNA ([12]; Example 4, treatment group 3): 78/95; cell growth / development of primary resistance [4]: delayed cell growth for the first two weeks, but the cells continued to grow quickly after that; cell growth / development of secondary resistance [5]: delayed cell growth for the first two weeks, but the cells continued to grow quickly after that; induction of replication stress marker, phosphorylation at serine positions 317 and 345 of CHK1 [8]: induced the replication stress marker; tumor growth ([13]; from 290 mm^3, gemcitabine 10 mg/kg ip every other day): inhibited tumor growth

Q: For Cc1ccc(F)c([C@@H](C)[C@H](NS(=O)(=O)c2ccc(Cl)cc2C(N)=O)c2n[nH]c(=O)o2)c1C [compound 1, 5-chloro-2-(n-((1S,2R)-2-(6-fluoro-2,3-dimethylphenyl)-1-(5-oxo-4,5-dihydro-1,3,4-oxadiazol-2-yl)propyl)sulfamoyl)benzamide], which “induction of replication stress marker, phosphorylation at serine positions 317 and 345 of CHK1” value [8] is on record?
A: induced the replication stress marker

Q: What does the source list for C[C@@H]1COCCN1c1cc(C2([S@](C)(=N)=O)CC2)nc(-c2cc[nH]c3nccc2-3)n1 [AZD6738]?
A: sensitivity of Colo320 ecDNA+ compared with ecDNA− cells, proliferation changes [1]: enhanced sensitivity; cell growth (cell confluence), agent alone [2]: did not affect HeLa cell growth; synthetic lethality with methotrexate ([2]; with 100 nM methotrexate, 3 weeks): synthetic lethality; sensitivity of Colo320 ecDNA+ compared with ecDNA− cells, viability changes [3]: enhanced sensitivity

Q: With C=CCn1c(=O)c2cnc(Nc3ccc(N4CCN(C)CC4)cc3)nc2n1-c1cccc(C(C)(C)O)n1 [adavosertib] as the molecule, how does the “resistance formation to methotrexate” value [14] read?
A: abrogation of resistance formation to methotrexate

Q: What about the “sensitivity of Colo320 ecDNA+ compared with ecDNA− cells, proliferation changes” value [1] of the same molecule?
A: enhanced sensitivity

Q: And the “development of methotrexate resistance” value [2]?
A: prevented development of methotrexate resistance

Q: And the “sensitivity of Colo320 ecDNA+ compared with ecDNA− cells, viability changes” value [3]?
A: enhanced sensitivity

Q: What about the “sensitivity, colony counts” value [15] of the same molecule?
A: demonstrated sensitivity

Q: What about the tumor growth ([13]; from about 180 mm^3, adavosertib 60 mg/kg orally once per day, PD0166285 0.3 mg/kg ip once per day) of the same molecule?
A: inhibited tumor growth

— patent US11642345B2, “Replication stress pathway agent compositions and methods for treating cancer” (Boundless Bio, Inc., priority 2020, dated 2023)
